Assay results as given in BindingDB's records for patent US12054475 (Kayothera, 2024).

Experiments:
Retinal dehydrogenase 2 [1] = target: T1, Retinal dehydrogenase 2 (Homo sapiens, UniProt O94788); assay: Aldh1a2 Enzyme Inhibition Assay
T1 sequence (O94788 whole entry): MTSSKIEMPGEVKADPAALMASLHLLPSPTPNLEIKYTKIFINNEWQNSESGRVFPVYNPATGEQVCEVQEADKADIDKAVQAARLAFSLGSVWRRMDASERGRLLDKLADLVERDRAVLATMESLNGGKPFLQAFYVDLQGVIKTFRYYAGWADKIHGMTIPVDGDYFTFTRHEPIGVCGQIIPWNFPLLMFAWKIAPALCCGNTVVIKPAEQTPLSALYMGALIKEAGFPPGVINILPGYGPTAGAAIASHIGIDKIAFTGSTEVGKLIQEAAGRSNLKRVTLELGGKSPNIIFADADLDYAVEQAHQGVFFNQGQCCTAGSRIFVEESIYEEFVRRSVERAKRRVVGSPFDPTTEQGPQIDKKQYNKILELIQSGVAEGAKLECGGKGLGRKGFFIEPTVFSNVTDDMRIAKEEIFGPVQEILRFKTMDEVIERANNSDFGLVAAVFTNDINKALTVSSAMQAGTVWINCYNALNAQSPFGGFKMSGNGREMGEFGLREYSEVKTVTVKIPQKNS

Retinal dehydrogenase 2 [2] = target: T2, Retinal dehydrogenase 2 (UniProt Q62148); assay: Aldh1a2 Enzyme Inhibition Assay
T2 sequence (Q62148 whole entry): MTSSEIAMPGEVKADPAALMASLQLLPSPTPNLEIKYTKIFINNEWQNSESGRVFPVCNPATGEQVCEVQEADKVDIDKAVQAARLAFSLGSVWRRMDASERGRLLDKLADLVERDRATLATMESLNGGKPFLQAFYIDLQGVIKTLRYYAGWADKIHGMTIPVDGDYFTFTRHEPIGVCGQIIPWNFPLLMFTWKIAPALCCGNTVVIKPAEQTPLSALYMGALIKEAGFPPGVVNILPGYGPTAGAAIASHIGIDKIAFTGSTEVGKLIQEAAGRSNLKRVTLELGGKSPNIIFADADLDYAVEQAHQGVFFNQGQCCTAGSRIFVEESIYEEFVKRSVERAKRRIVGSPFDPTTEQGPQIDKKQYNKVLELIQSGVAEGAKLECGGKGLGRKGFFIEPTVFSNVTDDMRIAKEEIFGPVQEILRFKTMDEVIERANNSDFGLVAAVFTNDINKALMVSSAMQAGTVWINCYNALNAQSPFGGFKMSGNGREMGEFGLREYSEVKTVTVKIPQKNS

IC50 (Retinal dehydrogenase 2 [1]): > 10 µM | IC50 (Retinal dehydrogenase 2 [2]): > 10 µM
SMILES: CCC1COCCN1C(=O)Nc1cc(C)c2c(c1)CCC(=O)N2 (racemic) [US12054475, Compound 193]
